Reference: ChEMBL document CHEMBL1129340, “New prolyl endopeptidase inhibitors: in vitro and in vivo activities of azabicyclo[2.2.2]octane, azabicyclo[2.2.1]heptane, and perhydroindole derivatives” (J Med Chem, 1996)

Assay: Half life was evaluated
Assay type: ADME

- half-life: 7 h
SMILES: O=C([C@@H]1C2CCC(CC2)N1C(=O)[C@@H]1C[C@@H]1c1ccccc1)N1CCCC1
